Data: US11191779B2, “Pharmaceutical composition for preventing or treating cancer, comprising tetraarsenic hexoxide crystalline polymorph” (CHEMAS CO., LTD., priority 2016, dated 2021)

Columns and labels:
[1] = test system: human lung cancer cell line SK-MES-1; assay: MTT cell proliferation assay, lung cancer cell line SK-MES-1; assay type: cell-based
Text: (§1) As human cancer cell lines, human lung cancer cell lines NCL-H226 and SK-MES-1, human esophageal cancer cell lines KYSE-150 and TE-1, human gastric cancer cell line AGS, human colorectal cancer cell lines HT29 and HCT116, human prostate cancer cell line PC-3, human pancreatic cancer cell lines BxPC-3 and PANC-1, human cervical cancer cell lines SiHa and HeLa, human ovarian cancer cell line SK-OV-3, and human endometrial cancer cell lines Ishikawa, HEC-1A, and HEC-1B were obtained from the Shanghai Cell Bank of Chinese Academy of Sciences. […]
(§2) The effects of Example 1 and Comparative Examples 1 to 3 on cell proliferation were assessed using MTT assay. […] All the crystals were completely dissolved by standing at room temperature for 15 minutes, and the absorbance was measured using a micro-plate reader at a wavelength of 570 nm (A570 nm).
(§3) The absorbance value of the control group treated without the sample was calculated as 100, and the absorbance value of the treatment group treated with the sample, compared with that of the control group, was calibrated, and the percentage of inhibition of cell proliferation was calculated according to the following equation. Percentage (%) of inhibition of cell proliferation=((mean absorbance of control group cells−mean absorbance of treatment group cells)/mean absorbance of control group cells)×100

[2] = test system: human esophageal cancer cell line KYSE-150; assay: MTT cell proliferation assay, esophageal cancer cell line KYSE-150; assay type: cell-based
Text: as §1, §2, §3

[3] = test system: human colorectal cancer cell line HT29; assay: MTT cell proliferation assay, colorectal cancer cell line HT29; assay type: cell-based
Text: as §1, §2, §3

[4] = test system: human esophageal cancer cell line TE-1; assay: MTT cell proliferation assay, esophageal cancer cell line TE-1; assay type: cell-based
Text: as §1, §2, §3

[5] = test system: human endometrial cancer cell line HEC-1A; assay: MTT cell proliferation assay, endometrial cancer cell line HEC-1A; assay type: cell-based; settings: treatment for 72 hours, read-out: Cancer cell growth inhibition (IC50)
Text: as §1, §2, §3

[6] = test system: human gastric cancer cell line AGS; assay: MTT cell proliferation assay, gastric cancer cell line AGS; assay type: cell-based
Text: As human cancer cell lines, human lung cancer cell lines NCL-H226 and SK-MES-1, human esophageal cancer cell lines KYSE-150 and TE-1, human gastric cancer cell line AGS, human colorectal cancer cell lines HT29 and HCT116, human prostate cancer cell line PC-3, human pancreatic cancer cell lines BxPC-3 and PANC-1, human cervical cancer cell lines SiHa and HeLa, human ovarian cancer cell line SK-OV-3, and human endometrial cancer cell lines Ishikawa, HEC-1A, and HEC-1B were obtained from the Shanghai Cell Bank of Chinese Academy of Sciences. The cells were incubated in media supplemented with 10% FBS, 50 U/ml penicillin, and 50 μg/ml streptomycin and suitable for incubation of respective cells (RPMI-1640 (NCL-H226, TE-1, BxPC-3, Ishikawa), MEM (SK-MES-1, SiHa, HeLa, HEC-1B), Ham's F-12K (AGS), Ham's F-12 (PC-3), McCOY's 5A (HT29, HCT116, SK-OV-3, HEC-1A), RPMI-1640:Ham's F-12=1:1(v:v) (KYSE-150), and DMEM (PANC-1)) in a humidified incubator with 5% CO2 and 95% air. The media were exchanged every three days.
as §2, with “assay. MTT assay is based on the ability of viable cells against MTT to produce insoluble dark blue formazan products.” for “assay.”
as §3

[7] = test system: human pancreatic cancer cell line PANC-1; assay: MTT cell proliferation assay, pancreatic cancer cell line PANC-1; assay type: cell-based
Text: as §1, §2, §3

[8] = test system: human ovarian cancer cell line SK-OV-3; assay: MTT cell proliferation assay, ovarian cancer cell line SK-OV-3; assay type: cell-based; settings: SK-OV-3, treatment for 72 hours, read-out: Cancer cell growth inhibition (IC50)
Text: as §1, §2, §3

[9] = test system: human cervical cancer cell line SiHa; assay: MTT cell proliferation assay, cervical cancer cell line SiHa; assay type: cell-based; settings: treatment for 72 hours, read-out: Cancer cell growth inhibition (IC50)
Text: as §1, §2, §3

[10] = test system: human cervical cancer cell line HeLa; assay: MTT cell proliferation assay, cervical cancer cell line HeLa; assay type: cell-based; settings: treatment for 72 hours, read-out: Cancer cell growth inhibition (IC50)
Text: as §1, §2, §3

[11] = test system: human prostate cancer cell line PC-3; assay: MTT cell proliferation assay, prostate cancer cell line PC-3; assay type: cell-based; settings: PC-3, treatment for 72 hours, read-out: Cancer cell growth inhibition (IC50)
Text: as §1, §2, §3

[12] = test system: various cancer cells, such as brain cancer, breast cancer, liver cancer, and skin cancer; assay: Proliferation of other cancer cells (data not shown); assay type: cell-based
[13] = test system: human colorectal cancer cell line HCT116; assay: MTT cell proliferation assay, colorectal cancer cell line HCT116; assay type: cell-based
Text: as §1, §2, §3

[14] = test system: human endometrial cancer cell line Ishikawa; assay: MTT cell proliferation assay, endometrial cancer cell line Ishikawa; assay type: cell-based; settings: treatment for 72 hours, read-out: Cancer cell growth inhibition (IC50)
Text: as §1, §2, §3

[15] = test system: human endometrial cancer cell line HEC-1B; assay: MTT cell proliferation assay, endometrial cancer cell line HEC-1B; assay type: cell-based; settings: treatment for 72 hours, read-out: Cancer cell growth inhibition (IC50)
Text: as §1, §2, §3

[16] = test system: human lung cancer cell line NCL-H226; assay: MTT cell proliferation assay, lung cancer cell line NCL-H226; assay type: cell-based
Text: as §1, §2, §3

[17] = test system: human pancreatic cancer cell line BxPC-3; assay: MTT cell proliferation assay, pancreatic cancer cell line BxPC-3; assay type: cell-based
Text: as §1, §2, §3

[18] = test system: uterine cancer, bladder cancer, lung cancer, maxillary sinus cancer, kidney cancer; settings: end-stage cancer patients; cited from earlier work
cancer metastasis = settings: animal experiments; cited from earlier work

**Q.** With `O1[As]2O[As]3O[As]1O[As](O2)O3` [Example 1, tetraarsenic hexoxide] as the molecule, how does the IC50 ([1]; Lung cancer, SK-MES-1, treatment for 72 hours, read-out: Cancer cell growth inhibition (IC50)) read?
**A.** 2.47 µM

**Q.** And the “percentage of inhibition of cell proliferation according to treatment time” value (“percentage of inhibition … to treatment time” below) ([1]; SK-MES-1, 10 μM, 24, 48, 72 hours (FIG. 3))?
**A.** increased with the treatment time

**Q.** And the IC50 ([2]; Esophageal cancer, KYSE-150, treatment for 72 hours, read-out: Cancer cell growth inhibition (IC50))?
**A.** 9.85 µM

**Q.** What about the “percentage of inhibition … to treatment time” value ([2]; KYSE-150, 10 μM, 24, 48, 72 hours (FIG. 4A)) of the same molecule?
**A.** significantly increased in the treatment for 72 hours

**Q.** And the IC50 ([3]; Colorectal cancer, HT29, treatment for 72 hours, read-out: Cancer cell growth inhibition (IC50))?
**A.** 1.27 µM

**Q.** And the “percentage of inhibition … to treatment time” value ([3]; HT29, 10 μM, 24, 48, 72 hours (FIG. 6A))?
**A.** increased with the treatment time

**Q.** And the IC50 ([4]; Esophageal cancer, TE-1, treatment for 72 hours, read-out: Cancer cell growth inhibition (IC50))?
**A.** 2.35 µM

**Q.** What about the “percentage of inhibition … to treatment time” value ([4]; TE-1, 10 μM, 24, 48, 72 hours (FIG. 4A)) of the same molecule?
**A.** increased with the treatment time

**Q.** What about the IC50 [5] of the same molecule?
**A.** 2.47 µM

**Q.** What about the IC50 ([6]; Gastric cancer, treatment for 72 hours, read-out: Cancer cell growth inhibition (IC50)) of the same molecule?
**A.** 0.9 µM

**Q.** What about the “inhibition of cell proliferation according to treatment time and concentration” value ([6]; different concentrations, 24, 48, 72 hours (FIG. 5A)) of the same molecule?
**A.** increased with the treatment time at each treatment concentration

**Q.** What about the “percentage of inhibition of gastric cancer cell proliferation at 48 hours” value ([6]; treatment for 48 hours (FIG. 5A)) of the same molecule?
**A.** high in spite of the treatment for only 48 hours

**Q.** What about the “percentage of inhibition of cell proliferation according to concentration” value ([7]; PANC-1, different concentrations, 72 hours (FIG. 8B)) of the same molecule?
**A.** increased dependent on the concentration of Example 1

**Q.** What about the IC50 ([7]; Pancreatic cancer, PANC-1, treatment for 72 hours, read-out: Cancer cell growth inhibition (IC50)) of the same molecule?
**A.** 5.62 µM

**Q.** What about the IC50 [8] of the same molecule?
**A.** 5.02 µM

**Q.** And the IC50 [9]?
**A.** 2.8 µM

**Q.** What about the IC50 [10] of the same molecule?
**A.** 1.63 µM

**Q.** What about the IC50 [11] of the same molecule?
**A.** 4.98 µM

**Q.** And the “inhibition of proliferation of various cancer cells” value [12]?
**A.** confirmed to inhibit the proliferation

**Q.** And the IC50 ([13]; Colorectal cancer, HCT116, treatment for 72 hours, read-out: Cancer cell growth inhibition (IC50))?
**A.** 5.07 µM

**Q.** And the “percentage of inhibition … to treatment time” value ([13]; HCT116, 10 μM, 24, 48, 72 hours (FIG. 6A))?
**A.** increased with the treatment time

**Q.** What about the IC50 [14] of the same molecule?
**A.** 2.75 µM

**Q.** And the IC50 [15]?
**A.** 4.61 µM

**Q.** And the IC50 ([16]; Lung cancer, NCL-H226, treatment for 72 hours, read-out: Cancer cell growth inhibition (IC50))?
**A.** 5.12 µM

**Q.** And the “percentage of inhibition … to treatment time” value ([16]; NCL-H226, 10 μM, 24, 48, 72 hours (FIG. 3))?
**A.** increased with the treatment time

**Q.** And the “percentage of inhibition of cell proliferation according to concentration” value ([17]; BxPC-3, different concentrations, 72 hours (FIG. 8B))?
**A.** increased dependent on the concentration of Example 1

**Q.** What about the IC50 ([17]; Pancreatic cancer, BxPC-3, treatment for 72 hours, read-out: Cancer cell growth inhibition (IC50)) of the same molecule?
**A.** 4.98 µM

**Q.** For `O1[As]2O[As]3O[As]1O[As](O2)O3` [tetraarsenic hexoxide], which anticancer treatment effects [18] is on record?
**A.** had excellent anticancer treatment effects

**Q.** And the “cancer metastasis suppressing effects” value (cancer metastasis)?
**A.** showed cancer metastasis suppressing effects
